Laboratory results published in ChEMBL document CHEMBL1201862, “PubChem BioAssay data set” (2004).
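Results reflect a 48-hour exposure of cells in 96-well plates to compound at five concentrations. Here, GI50 denotes the concentration required for 50% inhibition of growth.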 The source made the active and inactive calls. Cut-off read from the data, not from the text of the source: active = GI50 up to about 1.1 µM and inactive = higher.

Tests used:
Experiment in all cases: DTP human tumour cell line panel, 48 h
U-251 = system: U-251
SNB-75 = system: SNB-75
EKVX = system: EKVX
SK-MEL-2 = system: SK-MEL-2
HL-60 = system: HL-60
SF-295 = system: SF-295
SR = system: SR
HCT-15 = system: HCT-15
SF-268 = system: SF-268
NCI-H522 = system: NCI-H522
SK-MEL-28 = system: SK-MEL-28
PC-3 = system: PC-3
MDA-MB-231 = system: MDA-MB-231
SK-OV-3 = system: SK-OV-3
CAKI-1 = system: CAKI-1
HCT-116 = system: HCT-116
NCI-H226 = system: NCI-H226
RPMI-8226 = system: RPMI-8226
SF-539 = system: SF-539
MDA-MB-435 = system: MDA-MB-435

SMILES | GI50 (U-251) | GI50 (SNB-75) | GI50 (EKVX) | GI50 (SK-MEL-2) | GI50 (HL-60) | GI50 (SF-295) | GI50 (SR) | GI50 (HCT-15) [µM] | GI50 (SF-268) | GI50 (NCI-H522) | GI50 (SK-MEL-28) | GI50 (PC-3) | GI50 (MDA-MB-231) | GI50 (SK-OV-3) | GI50 (CAKI-1) | GI50 (HCT-116) | GI50 (NCI-H226) | GI50 (RPMI-8226) | GI50 (SF-539) | GI50 (MDA-MB-435)
COc1ccc(C(=O)N2CCN(c3ccc4c(c3)OCC(=O)N4)CC2)cc1 | > 100 µM (inactive) | > 100 µM (inactive) | 94 µM (inactive) | > 100 µM (inactive) | 64.6 µM (inactive) | > 100 µM (inactive) | 67.3 µM (inactive) | > 100 | > 100 µM (inactive) | 95.9 µM (inactive) | > 100 µM (inactive) | > 100 µM (inactive) | > 100 µM (inactive) | > 100 µM (inactive) | > 100 µM (inactive) | > 100 µM (inactive) | > 100 µM (inactive) | > 100 µM (inactive) | > 100 µM (inactive) | > 100 µM (inactive)
Cn1c(=O)c2nc(CCS)[nH]c2n(C)c1=O | > 100 µM (inactive) | 18.3 µM (inactive) | > 100 µM (inactive) | > 100 µM (inactive) | > 100 µM (inactive) | > 100 µM (inactive) | > 100 µM (inactive) | > 100 | 35.6 µM (inactive) | > 100 µM (inactive) | > 100 µM (inactive) | > 100 µM (inactive) | > 100 µM (inactive) | 68.1 µM (inactive) | > 100 µM (inactive) | > 100 µM (inactive) | > 100 µM (inactive) | > 100 µM (inactive) | 74.8 µM (inactive) | > 100 µM (inactive)
NS(=O)(=O)c1ccc(NCc2cccc3c(=O)c4ccc(Cl)cc4oc23)cc1 | 23.8 µM (inactive) | 37.8 µM (inactive) | > 33.8 µM (inactive) | 68.7 µM (inactive) | 3.68 µM (inactive) | 59.4 µM (inactive) | 4.68 µM (inactive) | 11.5 | 19.5 µM (inactive) | > 39.2 µM (inactive) | > 79.8 µM (inactive) | 31 µM (inactive) | 52 µM (inactive) | > 71.8 µM (inactive) | 41 µM (inactive) | 6.17 µM (inactive) | > 76.7 µM (inactive) | 24 µM (inactive) | 14.2 µM (inactive) | 19.7 µM (inactive)
Nc1nccc(-c2c[nH]c3cc(Br)ccc23)n1 [MERIDIANIN D] | 30.8 µM (inactive) | 20.5 µM (inactive) | 1.59 µM (inactive) | 20 µM (inactive) | 29.2 µM (inactive) | 35.3 µM (inactive) | 17.3 µM (inactive) | 25.1 | 31 µM (inactive) | 17.7 µM (inactive) | 30.5 µM (inactive) | 30.1 µM (inactive) | 33.2 µM (inactive) | 29.1 µM (inactive) | 12.6 µM (inactive) | 18.6 µM (inactive) | 45.6 µM (inactive) | 22.6 µM (inactive) | 32.6 µM (inactive) | 26.5 µM (inactive)
COC(=O)C(=O)C(C(=O)C(=O)Nc1nc2ccc(C)cc2s1)c1nc2ccc([N+](=O)[O-])cc2nc1O (stereo not given) | > 100 µM (inactive) | > 100 µM (inactive) | 68.4 µM (inactive) | > 100 µM (inactive) | > 100 µM (inactive) | > 100 µM (inactive) | > 100 µM (inactive) | > 100 | > 100 µM (inactive) | > 100 µM (inactive) | > 100 µM (inactive) | > 100 µM (inactive) | > 100 µM (inactive) | > 100 µM (inactive) | > 100 µM (inactive) | > 100 µM (inactive) | > 100 µM (inactive) | > 100 µM (inactive) | > 100 µM (inactive) | > 100 µM (inactive)
CC(C)(C)c1ccc(O)c(C(c2ccc([N+](=O)[O-])cc2)c2cc(C(C)(C)C)ccc2O)c1 | 2.28 µM (inactive) | 2.05 µM (inactive) | 1.97 µM (inactive) | 1.81 µM (inactive) | 2.23 µM (inactive) | 1.98 µM (inactive) | 2.4 µM (inactive) | 2.13 | 1.63 µM (inactive) | 2.11 µM (inactive) | 1.74 µM (inactive) | 1.85 µM (inactive) | 1.87 µM (inactive) | 2.11 µM (inactive) | 1.51 µM (inactive) | 2.43 µM (inactive) | 1.78 µM (inactive) | 2.37 µM (inactive) | 1.89 µM (inactive) | 1.78 µM (inactive)
O=C(O)CN(CC(=O)O)C1CCCCC1N1CC(=O)OC(=O)C1 (stereo not given) | 43.4 µM (inactive) | 17.2 µM (inactive) | > 100 µM (inactive) | > 100 µM (inactive) | > 100 µM (inactive) | > 100 µM (inactive) | 71.4 µM (inactive) | 95.9 | 61.7 µM (inactive) | > 100 µM (inactive) | > 100 µM (inactive) | > 100 µM (inactive) | > 100 µM (inactive) | > 100 µM (inactive) | > 100 µM (inactive) | > 100 µM (inactive) | > 100 µM (inactive) | > 100 µM (inactive) | > 100 µM (inactive) | > 100 µM (inactive)
CC1(C)OCC2OC3(c4nc(C#N)c(N)o4)OC(C)(C)OC3C2O1 (stereo not given) | > 100 µM (inactive) | > 100 µM (inactive) | > 100 µM (inactive) | > 100 µM (inactive) | > 100 µM (inactive) | > 100 µM (inactive) | > 100 µM (inactive) | > 100 | > 100 µM (inactive) | > 100 µM (inactive) | > 100 µM (inactive) | > 100 µM (inactive) | > 100 µM (inactive) | > 100 µM (inactive) | > 100 µM (inactive) | > 100 µM (inactive) | > 100 µM (inactive) | > 100 µM (inactive) | > 100 µM (inactive) | > 100 µM (inactive)
CC(C)(C)c1cc(C(P(=O)(c2ccccc2)c2ccccc2)P(=O)(c2ccccc2)c2ccccc2)cc(C(C)(C)C)c1O | 2.77 µM (inactive) | 2.71 µM (inactive) | 2.98 µM (inactive) | 1.87 µM (inactive) | 3.03 µM (inactive) | 1.92 µM (inactive) | 2.28 µM (inactive) | 2.96 | 2.93 µM (inactive) | 2.28 µM (inactive) | 1.95 µM (inactive) | 2.67 µM (inactive) | 2.76 µM (inactive) | 3.11 µM (inactive) | 3.85 µM (inactive) | 1.58 µM (inactive) | 3.44 µM (inactive) | 3.19 µM (inactive) | 2.25 µM (inactive) | 1.9 µM (inactive)
COc1cc(Br)cc2nc(-c3cccs3)oc12 | 42.1 µM (inactive) | > 51.3 µM (inactive) | > 61.9 µM (inactive) | > 100 µM (inactive) | > 100 µM (inactive) | 55.7 µM (inactive) | > 100 µM (inactive) | 16.2 | > 62.4 µM (inactive) | 99.8 µM (inactive) | > 100 µM (inactive) | > 100 µM (inactive) | > 42.2 µM (inactive) | > 90.6 µM (inactive) | > 86.5 µM (inactive) | > 70.6 µM (inactive) | > 100 µM (inactive) | > 100 µM (inactive) | 75.9 µM (inactive) | > 100 µM (inactive)
O=C(CCCN1CCC2(CC1)NC(=O)c1ccccc1O2)c1ccc(F)cc1 | > 100 µM (inactive) | > 100 µM (inactive) | > 100 µM (inactive) | > 100 µM (inactive) | 85.3 µM (inactive) | > 100 µM (inactive) | 57 µM (inactive) | > 100 | > 100 µM (inactive) | > 100 µM (inactive) | > 100 µM (inactive) | 73.8 µM (inactive) | > 100 µM (inactive) | > 100 µM (inactive) | > 100 µM (inactive) | > 100 µM (inactive) | > 100 µM (inactive) | 76.6 µM (inactive) | > 100 µM (inactive) | > 100 µM (inactive)
Cc1cnc2c(c1)C(=O)N(c1ccc([N+](=O)[O-])cc1)S2(=O)=O | 67.1 µM (inactive) | 61.1 µM (inactive) | > 100 µM (inactive) | 5.47 µM (inactive) | 28.2 µM (inactive) | 82.8 µM (inactive) | 25.7 µM (inactive) | 66.1 | 77.8 µM (inactive) | 25.1 µM (inactive) | 74 µM (inactive) | 67.3 µM (inactive) | > 100 µM (inactive) | > 100 µM (inactive) | > 100 µM (inactive) | > 100 µM (inactive) | 19.9 µM (inactive) | 37.7 µM (inactive) | 64.6 µM (inactive) | 70.5 µM (inactive)
NS(=O)(=O)c1ccc(NC(=O)c2cccc3cc4ccccc4nc23)cc1 | 23.4 µM (inactive) | > 37.4 µM (inactive) | > 100 µM (inactive) | > 100 µM (inactive) | 25.9 µM (inactive) | 16.3 µM (inactive) | 4.58 µM (inactive) | 12.6 | 56.9 µM (inactive) | 17.1 µM (inactive) | > 91 µM (inactive) | 37.3 µM (inactive) | > 100 µM (inactive) | > 88.7 µM (inactive) | 10.1 µM (inactive) | 4.69 µM (inactive) | 25.9 µM (inactive) | 8.32 µM (inactive) | 13.8 µM (inactive) | 34.3 µM (inactive)
N#C/C(=C\c1ccc(Cl)cc1)c1nc(-c2cc3ccccc3oc2=O)cs1 | 30.8 µM (inactive) | 26.9 µM (inactive) | > 100 µM (inactive) | > 100 µM (inactive) | > 100 µM (inactive) | 44.4 µM (inactive) | > 100 µM (inactive) | > 100 | 34.8 µM (inactive) | 15.6 µM (inactive) | 95.9 µM (inactive) | > 100 µM (inactive) | 22 µM (inactive) | 84.5 µM (inactive) | > 100 µM (inactive) | 67.6 µM (inactive) | 39 µM (inactive) | > 100 µM (inactive) | 39.8 µM (inactive) | > 100 µM (inactive)
